Measured values as given in US20130149701A1, “METHODS OF IDENTIFYING THERAPEUTIC AGENTS FOR TREATING PERSISTER AND BACTERIAL INFECTION” (priority 2010, published 2013).
Values after ≈ are worked out from the molar mass of the structure shown. “Also recorded” adds a separate entry of the source. Read-outs that look alike come from different tables or passages of the source.

Key:
[1] = molecular target: DHM444 mutant RpsA binding to tmRNA (Mycobacterium tuberculosis, UniProt P9WH43, DEL438-438); parameters: species or system M. tuberculosis
[2] = system: M. tuberculosis strains (wild type and wild type/pOLYG, and wild type/pOLYG+rpsA); assay: microbe, parasite or virus in culture; format: cell-based; details: for susceptibility of the RpsA overexpressing Mtb strain to other drugs: compared with parent strain or vector control strain, pH6.8; for MIC: Mycobacterium tuberculosis, read-out: minimum inhibitory concentration (MIC)
M. tuberculosis = format: cell-based
[3] = molecular target: mutant RpsAΔA438 from the PZA-resistant strain DHM444 (Mycobacterium tuberculosis, UniProt P9WH43, DEL438-438); format: binding, M. tuberculosis
[4] = system: Mtb clinical isolate DHM444 / H37Rv; assay: microbe, parasite or virus in culture; format: cell-based, M. tuberculosis; details: Mycobacterium tuberculosis

Compound: NNC(=O)c1ccncc1 [INH, isoniazid]
- effect on tmRNA binding to mutant RpsA [1]: no effect; also recorded: not affected
- susceptibility of the RpsA overexpressing Mtb strain to other drugs [2]: remained the same

Compound: NC(=O)c1cnccn1 [PZA, Pyrazinamide]
- effect on tmRNA binding to mutant RpsA [1]: no effect; also recorded: not affected
- MIC (M. tuberculosis): 10 µg/mL (≈ 81.2 µM)
- PZA susceptibility (M. tuberculosis): more susceptible
- effect on PZA susceptibility (M. tuberculosis): did not have significant effect
- reduction in MIC (M. tuberculosis): 5 fold
- binding to mutant RpsA (ITC) [3]: did not bind; also recorded: failed to bind
- MIC ([2]; pH 5.5, PZA, vector control and parental Mtb strain, pH 5.5): 100 µg/mL (≈ 812 µM)
- MIC ([2]; pH 5.5): 500 µg/mL (≈ 4060 µM)
- increase in the minimum inhibitory concentration (MIC) ([2]; pH 5.5): 5 fold
- MIC [4]: 200 to 300 µg/mL (≈ 1620 to 2440 µM)

Compound: CCn1cc(C(=O)O)c(=O)c2cc(F)c(N3CCNCC3)cc21 [norfloxacin]
- susceptibility of the RpsA overexpressing Mtb strain to other drugs [2]: remained the same

Compound: CO[C@H]1/C=C/O[C@@]2(C)Oc3c(C)c(O)c4c(O)c(c(/C=N/N5CCN(C)CC5)c(O)c4c3C2=O)NC(=O)/C(C)=C\C=C\[C@H](C)[C@H](O)[C@@H](C)[C@@H](O)[C@@H](C)[C@H](OC(C)=O)[C@@H]1C [rifampin]
- susceptibility of the RpsA overexpressing Mtb strain to other drugs [2]: remained the same

Compound: [H]/N=C(/N)N[C@H]1[C@H](O)[C@@H](O)[C@H](O[C@@H]2O[C@@H](C)[C@](O)(C=O)[C@H]2O[C@@H]2O[C@@H](CO)[C@H](O)[C@@H](O)[C@@H]2NC)[C@@H](N/C(N)=N\[H])[C@@H]1O [streptomycin]
- susceptibility of the RpsA overexpressing Mtb strain to other drugs [2]: remained the same

Compound: O=C(O)c1cnccn1 [POA, 2-pyrazinecarboxylic acid]
- effect on tmRNA binding to mutant RpsA [1]: did not inhibit
- binding to mutant RpsA (ITC) [3]: not and failed to bind
